From the supplement of paper PMC12137928
Where a name gives a salt, the structure may show the parent alone.

Columns and labels:
HCT116 [1] = details: 72 h
Method in brief: (§1)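 HCT116 cells were seeded at 250 per well in 1536-well plates and left 5 h to attach. CellTiter-Glo luminescence was scaled to vehicle (0%) and positive control (-100%), then pattern-corrected. IC50 and maximal efficacy came from four-parameter Hill fits.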

HCT116 [2] = test: efficacy (maximum % inhibition of viability vs DMSO); higher = more cytotoxic; details: 72 h
Method in brief: as §1

SMILES	IC50 cell viability (HCT116 [1]; ICRF193 0 nM) [µM]	IC50 cell viability (HCT116 [1]; ICRF193 200 nM) [µM]	efficacy (HCT116 [2]; ICRF193 200 nM) [%]	efficacy (HCT116 [2]; ICRF193 0 nM) [%]
CC(C)c1cc2c(cc1S(=O)(=O)O)[C@@]1(C)CCC[C@@](C)(C(=O)O)[C@@H]1CC2 [Ecabet]	> 45.8	0.103	63.3	
N=C(N)c1ccc(OCCCOc2ccc(C(=N)N)cc2Br)c(Br)c1 [Dibromopropamidine dihydrochloride]	> 45.8	18.3	51.6	
O=C(NC(=O)c1c(F)cccc1F)Nc1cc(Cl)c(OC(F)(F)C(F)C(F)(F)F)cc1Cl (stereo not drawn) [Lufenuron]	> 45.8	18.3	41.2	
CCCCCCCCCCCCCCCC[n+]1ccccc1 [Cetylpyridinium bromide]	2.59	2.59	90.4	90.6
CCCCCCCCCCCCCCCC[N+](C)(C)Cc1ccccc1 [Benzylhexadecyldimethylammonium chloride]	18.3	18.3	129	128
CC/C(=C(\c1ccccc1)c1ccc(OCCN(C)C)cc1)c1ccccc1 [Tamoxifen]	23.1	18.3	93	101
Oc1cccc2cccnc12 [OXYQUINOLINE HEMISULFATE]	23.1	18.3	88.8	86.7
CN(C)c1ccc(C(=C2C=CC(=[N+](C)C)C=C2)c2ccccc2)cc1 [Malachite green oxalate]	0.183	0.231	96	98.5
C=C1C(=O)O[C@H]2[C@H]1CC/C(C)=C/CC[C@@]1(C)O[C@@H]21 [Parthenolide]	6.51	8.2	95.3	93.1
C/C(O)=C(\C#N)C(=O)Nc1ccc(C(F)(F)F)cc1 [Teriflunomide]	13	11.6	46.2	51.8
CN(C(=O)CN(CCO)CC(=O)N(C)C(C)(C)Cc1ccccc1)C(C)(C)Cc1ccccc1 [Oxethazaine]	16.4	13	97.5	104
[O-][n+]1ccccc1SSc1cccc[n+]1[O-] [Dipyrithione]	1.42	1.27	74.7	83.9
C=CCN1CC[C@]23CCCC[C@H]2[C@H]1Cc1ccc(O)cc13 [Levallorphan]	> 45.8	25.9	42.1	
CC(C)C[C@H]1C(=O)N2CCC[C@H]2[C@]2(O)O[C@](NC(=O)[C@@H]3C=C4c5cccc6[nH]c(Br)c(c56)C[C@H]4N(C)C3)(C(C)C)C(=O)N12 [BROMOCRIPTINE]	> 45.8	18.3	43.2	
CN(C)C(=S)SSC(=S)N(C)C [Thiram]	> 45.8	29.1	82.8	
CC[C@H]1CN2CCc3cc(OC)c(OC)cc3[C@@H]2C[C@@H]1C[C@H]1NCCc2cc(OC)c(OC)cc21 [EMETINE DIHYDROCHLORIDE]	0.146	0.13	76.6	70.8
CN(C)CCC=C1c2ccccc2C=Cc2ccccc21 [Cyclobenzaprine hydrochloride]	> 45.8	20.6	52.3	
CO[C@H]1C[C@@H]2CC[C@@H](C)[C@@](O)(O2)C(=O)C(=O)N2CCCC[C@H]2C(=O)O[C@H]([C@H](C)C[C@@H]2CC[C@@H](OC(=O)C(C)(CO)CO)[C@H](OC)C2)CC(=O)[C@H](C)/C=C(\C)[C@@H](O)[C@@H](OC)C(=O)[C@H](C)C[C@H](C)/C=C/C=C/C=C/1C [Temsirolimus]	14.2	15.9	79	74.5
C=C(NC(=O)C(=C)NC(=O)c1csc(C2=N[C@@H]3c4csc(n4)[C@H]4NC(=O)c5csc(n5)[C@H]([C@](C)(O)[C@@H](C)O)NC(=O)[C@H]5CSC(=N5)/C(=C/C)NC(=O)[C@H]([C@@H](C)O)NC(=O)c5csc(n5)[C@]3(CC2)NC(=O)[C@H](C)NC(=O)C(=C)NC(=O)[C@H](C)NC(=O)[C@H]([C@@H](C)CC)N[C@@H]2C=Cc3c([C@H](C)O)cc(nc3[C@H]2O)C(=O)O[C@@H]4C)n1)C(N)=O [Thiostrepton]	> 45.8	5.17	58.6	
OC[C@H]1O[C@H](O[C@]2(CCl)O[C@H](CCl)[C@@H](O)[C@@H]2O)[C@H](O)[C@@H](O)[C@H]1Cl [Sucralose]	> 45.8	6.51	44.6	
CCN(CC)CCOc1ccc(C(=C(Cl)c2ccccc2)c2ccccc2)cc1 [Clomifene citrate]	18.3	20.6	120	110
CC(CN1c2ccccc2Sc2ccccc21)N(C)C (stereo not drawn) [Promethazine]	> 45.8	29.1	45.3	
O=c1c(C2CC(c3ccc(-c4ccc(Br)cc4)cc3)Cc3ccccc32)c(O)sc2ccccc12 (stereo not drawn) [Difethialone]	23.1	18.3	68.3	46.7
CCCCCOc1ccccc1/C(=C\SC)n1ccnc1 [Neticonazole]	16.4	16.4	51.1	48.1
Clc1ccc(COC(Cn2ccnc2)c2ccc(Cl)cc2Cl)cc1 (stereo not drawn) [Econazole nitrate]	20.6	20.6	96	90.3
Cc1ccc([N+](=O)[O-])[c]2c1[O][Hg]2 [Nitromersol]	3.26	5.8	91.5	88.9

More lines, main results first:

IC50 cell viability (HCT116 [1]; ICRF193 0 nM) [µM]	IC50 cell viability (HCT116 [1]; ICRF193 200 nM) [µM]	SMILES	efficacy (HCT116 [2]; ICRF193 200 nM) [%]	efficacy (HCT116 [2]; ICRF193 0 nM) [%]
10.3	13	Cc1c(C(=O)Nc2ccc(N3C[C@@H](C)O[C@@H](C)C3)nc2)cccc1-c1ccc(OC(F)(F)F)cc1 [Sonidegib]	60.5	42.7
> 45.8	20.6	CC(=O)c1ccc2c(c1)N(CCCN1CCC(CCO)CC1)c1ccccc1S2 [Piperacetazine]	48.7	
11.6	16.4	CCOC(=O)[C@@H](N)Cc1ccc(-c2cc(O[C@H](c3ccc(Cl)cc3-n3ccc(C)n3)C(F)(F)F)nc(N)n2)cc1 [LX1606 (Hippurate)]	102	64.7
> 45.8	20.6	CC(C)(C)NC[C@H](O)COc1ccccc1C1CCCC1 [Penbutolol sulfate]	50	
23.1	23.1	OC(c1cc(C(F)(F)F)nc2c(C(F)(F)F)cccc12)C1CCCCN1 (stereo not drawn) [Mefloquine hydrochloride]	98	116
1.16	0.92	COc1cc(NCc2ccc3nc(N)nc(N)c3c2C)cc(OC)c1OC [Trimetrexate]	90.7	102
> 45.8	20.6	Cc1ccc2nc(N)[nH]c(=O)c2c1Sc1ccncc1 [NOLATREXED HCL]	45.1	
10.3	> 45.8	CCCSc1ccc2[nH]c(NC(=O)OC)nc2c1 [Albendazole]		53
1.16	0.291	C=CCNc1c(O)cc2c(O)c1C[C@@H](C)C[C@H](OC)[C@H](O)[C@@H](C)/C=C(\C)[C@H](OC(N)=O)[C@@H](OC)/C=C\C=C(/C)C(=O)N2 [Retaspimycin (Hydrochloride)]	79.8	80.4
0.0651	0.0461	COC(=O)C[C@](O)(CCCC(C)(C)O)C(=O)O[C@@H]1C(OC)=C[C@]23CCCN2CCc2cc4c(cc2[C@H]13)OCO4 [Omacetaxine mepesuccinate]	66.3	65.6
29.1	25.9	COC(=O)[C@H]1[C@H]2C[C@@H]3c4[nH]c5ccccc5c4CCN3C[C@H]2C[C@@H](OC(=O)c2cc(OC)c(OC)c(OC)c2)[C@@H]1OC [Deserpidine]	48.2	59.1
20.6	20.6	CC(C)(C)c1ccc(CN2CCN(C(c3ccccc3)c3ccc(Cl)cc3)CC2)cc1 (stereo not drawn) [Buclizine HCl]	59	42.9
> 45.8	20.6	CNC(=O)c1ccc(N2C(=S)N(c3ccc(C#N)c(C(F)(F)F)c3)C(=O)C2(C)C)cc1F [Enzalutamide]	45.8	
> 45.8	29.1	COc1cc(C(=O)OCCCN2CCCN(CCCOC(=O)c3cc(OC)c(OC)c(OC)c3)CC2)cc(OC)c1OC [Dilazep]	51.1	
29.1	23.1	Cc1nc(Nc2ncc(C(=O)Nc3c(C)cccc3Cl)s2)cc(N2CCN(CCO)CC2)n1 [Dasatinib]	105	74.6
0.183	> 45.8	CC[C@@]1(O)C(=O)OCc2c1cc1n(c2=O)Cc2c-1nc1ccccc1c2/C=N/OC(C)(C)C [Gimatecan]		48.8
29.1	18.3	C=C[C@@H]1C[C@]1(NC(=O)[C@@H]1C[C@@H]2CN1C(=O)[C@H](C(C)(C)C)NC(=O)O[C@@H]1C[C@H]1CCCCCc1nc3ccc(OC)cc3nc1O2)C(=O)NS(=O)(=O)C1CC1 [MK-5172]	81.1	91.6
23.1	9.2	CC[C@@]1(O)C[C@H](O[C@H]2C[C@H](N(C)C)[C@H](O[C@H]3C[C@H](O)[C@H](O[C@H]4CCC(=O)[C@H](C)O4)[C@H](C)O3)[C@H](C)O2)c2c(cc3c(c2O)C(=O)c2c(O)cccc2C3=O)[C@H]1C(=O)OC [Aclarubicin]	112	122
> 45.8	23.1	COc1ccccc1N1CCN(CC(O)COc2cccc3ccccc23)CC1 (stereo not drawn) [Naftopidil]	62.6	
18.3	18.3	CC(C)(C)c1cc(C(C)(C)C)c(NC(=O)c2c[nH]c3ccccc3c2=O)cc1O [Ivacaftor]	98.6	96.4
> 45.8	29.1	Cc1nc2c([nH]1)-c1ccccc1N(C(=O)c1ccc(NC(=O)c3ccccc3-c3ccccc3)cc1)CC2 [Conivaptan hydrochloride]	60	
29.1	29.1	CO[C@H]1/C=C/O[C@@]2(C)Oc3c(C)c(O)c4c(O)c(c(/C=N/N5CCN(C)CC5)c(O)c4c3C2=O)NC(=O)/C(C)=C\C=C\[C@H](C)[C@H](O)[C@@H](C)[C@@H](O)[C@@H](C)[C@H](OC(C)=O)[C@@H]1C [Rifampicin]	44.1	44.2
> 45.8	20.6	N#C/C(=C1/SC[C@@H](c2ccc(Cl)cc2Cl)S1)n1ccnc1 [Luliconazole]	44.9	
18.3	18.3	CCOC(=O)C1=C(C)NC(C)=C(C(=O)OC)C1c1cccc(Cl)c1Cl (stereo not drawn) [Felodipine]	52	47.4
29.1	23.1	CC(C)(C)c1ccc(C(=O)CCCN2CCC(OC(c3ccccc3)c3ccccc3)CC2)cc1 [Ebastine]	112	115
29.1	16.4	COC(=O)C1=C(C)NC(C)=C(C(=O)OCC(C)=O)C1c1ccccc1[N+](=O)[O-] (stereo not drawn) [Aranidipine]	88.9	83.8
